In patent US9365605B2, “Cyclic nucleotide analogs” (priority 2010, dated 2016):
pEC50: −log10 of the molar value. Read-outs that look alike come from different tables or passages of the source.

Test system: Huh-7 cells containing the self-replicating, subgenomic HCV replicon with a stable luciferase (LUC) reporter
Experiment: HCV replicon assay (luciferase reporter, Bright-Glo)
Type: cell-based
Experimental: Huh-7 cells containing the self-replicating, subgenomic HCV replicon with a stable luciferase (LUC) reporter were cultured in Dulbecco's modified Eagle's medium (DMEM) containing 2 mM L-glutamine and supplemented with 10% heat-inactivated fetal bovine serum (FBS), 1% penicillin-streptomyocin, 1% nonessential amino acids, and 0.5 mg/mL G418.
Determination of 50% inhibitory concentration (EC50) of compounds in HCV replicon cells were performed by the following procedure. On the first day, 5,000 HCV replicon cells were plated per well in a 96-well plate. On the following day, test compounds were solubilized in 100% DMSO to 100× the desired final testing concentration. Each compound was then serially diluted (1:3) up to 9 different concentrations. Compounds in 100% DMSO are reduced to 10% DMSO by diluting 1:10 in cell culture media. The compounds were diluted to 10% DMSO with cell culture media, which were used to dose the HCV replicon cells in 96-well format. The final DMSO concentration was 1%. The HCV replicon cells were incubated at 37° C. for 72 hours. At 72 hours, cells were processed when the cells are still subconfluent. Compounds that reduce the LUC signal are determined by Bright-Glo Luciferase Assay (Promega, Madison, Wis.). % Inhibition was determined for each compound concentration in relation to the control cells (untreated HCV replicon) to calculate the EC50.
Compounds of Formula (I) are active in the replicon assay. The antiviral activity of exemplary compounds is shown in Table 5, where ‘A’ indicates an EC50<1 μM, ‘B’ indicates an EC50≧1 μM and <10 μM, and ‘C’ indicates an EC50≧10 μM and <100 μM.

SMILES | pEC50 (Hepatitis C virus, Huh-7, 72 h) | also measured
COc1nc(N)nc2c1ncn2[C@@H]1O[C@@H]2COP(=S)(OC)O[C@H]2[C@@]1(C)O (some centres unmarked) [Compound 1a, (Rp/Sp) 2′-C-methyl-6-O-methyl-guanosine-3′,5′-cyclic-O-methyl phosphorothioate] | > 6.00 | –
COP1(=O)O[C@H]2[C@@H](O)[C@H](n3cnc4c(N)ncnc43)O[C@@H]2[C@H](C)O1 (some centres unmarked) [Compound 8a] | – | pEC50 (Hepatitis C virus, HCV replicon cells (Huh-7), 72 hours incubation, LUC signal, read-out: EC50): 4.00 to 5.00
COP1(=S)OC[C@H]2O[C@@H](n3ccc(=O)[nH]c3=O)[C@](C)(O)[C@@H]2O1 (some centres unmarked) [Compound 10a, 1-(7-Hydroxy-2-methoxy-7-methyl-2-thioxo-tetrahydro-2l5-furo[3,2-d][1,3,2]dioxaphosphinin-6-yl)-1H-pyrimidine-2,4-dione] | 4.00 to 5.00 | –
CC(C)OP1(=S)OC[C@H]2O[C@@H](n3ccc(=O)[nH]c3=O)[C@](C)(O)[C@@H]2O1 (some centres unmarked) [Compound 11a, 1-(7-Hydroxy-2-isopropoxy-7-methyl-2-thioxo-tetrahydro-2l5-furo[3,2-d][1,3,2]dioxaphosphinin-6-yl)-1H-pyrimidine-2,4-dione] | 5.00 to 6.00 | –
COc1nc(N)nc2c1ncn2[C@@H]1O[C@@H]2COP(=O)(SCOC(=O)C(C)(C)C)O[C@H]2[C@@]1(C)O (some centres unmarked) [Compound 12a, 2′-C,O^6-Dimethylguanosine 3′,5′-cyclic O-pivaloyloxymethyl phosphorothioate] | – | pEC50 (HCV replicon cells (Huh-7), 72 hours incubation, LUC signal, read-out: EC50): > 6.00
